Data as given in PMC5448077, “Development of an orally available inhibitor of CLK1 for skipping a mutated dystrophin exon in Duchenne muscular dystrophy” (Scientific Reports, 2017).

Columns and labels:
Test in all cases: biochemical
ABL = target: T1, ABL (Homo sapiens, UniProt P00519)
T1 construct: gene ABL1
How it was run: (§1)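 Reactions at room temperature in HEPES buffer (20 mM, pH 7.5, 0.01% Triton X-100, 2 mM DTT) lasted 1 or 5 h depending on kinase, with substrate peptide and ATP-metal. Phosphorylation read by electrophoretic mobility shift or IMAP polarization; kinase activity computed as P/(P + S).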

AKT2 = AKT2 (Homo sapiens, UniProt P31751)
How it was run: as §1

ALK(R1275Q) = ALK(R1275Q) (Homo sapiens, UniProt Q9UM73, R1275Q)
How it was run: as §1

AXL = AXL (Homo sapiens, UniProt P30530)
How it was run: as §1

CDK7/CycH/MAT1 = CDK7/CycH/MAT1 (Homo sapiens, UniProt P50613)
How it was run: as §1

CHK1 = target: T2, CHK1 (Homo sapiens, UniProt O14757)
T2 construct: gene CHEK1
How it was run: as §1

CK1α = target: T3, CK1α (Homo sapiens, UniProt P48729)
T3 construct: gene CSNK1A1
How it was run: as §1

CK1γ1 = target: T4, CK1γ1 (Homo sapiens, UniProt Q9HCP0)
T4 construct: gene CSNK1G1
How it was run: as §1

CRIK = target: T5, CRIK (Homo sapiens, UniProt O14578)
T5 construct: gene CIT
How it was run: as §1

CaMK2α = target: T6, CaMK2α (Homo sapiens, UniProt Q9UQM7)
T6 construct: gene CAMK2A
How it was run: as §1

EEF2K = EEF2K (Homo sapiens, UniProt O00418)
How it was run: as §1

EGFR(L861Q) = EGFR(L861Q) (Homo sapiens, UniProt P00533, L861Q)
How it was run: as §1

EGFR(T790M/L858R) = EGFR(T790M/L858R) (Homo sapiens, UniProt P00533, L858R/T790M)
How it was run: as §1

EPHB1 = EPHB1 (Homo sapiens, UniProt P54762)
How it was run: as §1

FLT1 = FLT1 (Homo sapiens, UniProt P17948)
How it was run: as §1

HIPK2 = HIPK2 (Homo sapiens, UniProt Q9H2X6)
How it was run: as §1

JAK1 = JAK1 (Homo sapiens, UniProt P23458)
How it was run: as §1

JAK3 = JAK3 (Homo sapiens, UniProt P52333)
How it was run: as §1

KIT(V560G) = KIT(V560G) (Homo sapiens, UniProt P10721, V560G)
How it was run: as §1

LCK = LCK (Homo sapiens, UniProt P06239)
How it was run: as §1

MNK2 = target: T7, MNK2 (Homo sapiens, UniProt Q9HBH9)
T7 construct: gene MKNK2
How it was run: as §1

PAK6 = PAK6 (Homo sapiens, UniProt Q9NQU5)
How it was run: as §1

PDGFRα(T674I) = target: T8, PDGFRα(T674I) (Homo sapiens, UniProt P16234, T674I)
T8 construct: gene PDGFRA
How it was run: as §1

PKCα = target: T9, PKCα (Homo sapiens, UniProt P17252)
T9 construct: gene PRKCA
How it was run: as §1

PKD1 = target: T10, PKD1 (Homo sapiens, UniProt Q15139)
T10 construct: gene PRKD1
How it was run: as §1

PYK2 = target: T11, PYK2 (Homo sapiens, UniProt Q14289)
T11 construct: gene PTK2B
How it was run: as §1

ROCK2 = ROCK2 (Homo sapiens, UniProt O75116)
How it was run: as §1

SRC = SRC (Homo sapiens, UniProt P12931)
How it was run: as §1

TNIK = TNIK (Homo sapiens, UniProt Q9UKE5)
How it was run: as §1

TSSK2 = TSSK2 (Homo sapiens, UniProt Q96PF2)
How it was run: as §1

TXK = TXK (Homo sapiens, UniProt P42681)
How it was run: as §1

T10 sequence (Q15139 whole entry): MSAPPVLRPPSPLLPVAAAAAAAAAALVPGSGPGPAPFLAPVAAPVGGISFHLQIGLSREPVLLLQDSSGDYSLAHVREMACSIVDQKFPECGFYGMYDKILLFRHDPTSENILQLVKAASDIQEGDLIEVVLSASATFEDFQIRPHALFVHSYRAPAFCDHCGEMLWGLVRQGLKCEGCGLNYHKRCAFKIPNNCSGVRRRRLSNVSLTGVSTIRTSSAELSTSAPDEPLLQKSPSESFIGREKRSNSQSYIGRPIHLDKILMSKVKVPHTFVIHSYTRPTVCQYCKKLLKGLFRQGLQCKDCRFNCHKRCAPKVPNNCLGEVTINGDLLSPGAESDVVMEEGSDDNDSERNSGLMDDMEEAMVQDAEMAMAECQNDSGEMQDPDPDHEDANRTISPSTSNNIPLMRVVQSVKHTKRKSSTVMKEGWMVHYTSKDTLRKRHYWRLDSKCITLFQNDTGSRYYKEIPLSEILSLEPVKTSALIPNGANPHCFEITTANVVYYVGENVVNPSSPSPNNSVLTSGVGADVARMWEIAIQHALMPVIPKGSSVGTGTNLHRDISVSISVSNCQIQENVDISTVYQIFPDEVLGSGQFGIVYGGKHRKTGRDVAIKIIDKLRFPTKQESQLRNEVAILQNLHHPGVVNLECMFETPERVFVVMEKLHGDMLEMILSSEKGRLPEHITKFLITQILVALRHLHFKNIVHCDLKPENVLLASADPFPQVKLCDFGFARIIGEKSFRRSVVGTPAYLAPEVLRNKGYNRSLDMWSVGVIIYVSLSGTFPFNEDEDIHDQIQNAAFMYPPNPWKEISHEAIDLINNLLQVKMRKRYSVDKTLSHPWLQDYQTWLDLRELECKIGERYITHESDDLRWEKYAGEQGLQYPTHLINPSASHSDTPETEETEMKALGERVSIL
T2 sequence (O14757 whole entry): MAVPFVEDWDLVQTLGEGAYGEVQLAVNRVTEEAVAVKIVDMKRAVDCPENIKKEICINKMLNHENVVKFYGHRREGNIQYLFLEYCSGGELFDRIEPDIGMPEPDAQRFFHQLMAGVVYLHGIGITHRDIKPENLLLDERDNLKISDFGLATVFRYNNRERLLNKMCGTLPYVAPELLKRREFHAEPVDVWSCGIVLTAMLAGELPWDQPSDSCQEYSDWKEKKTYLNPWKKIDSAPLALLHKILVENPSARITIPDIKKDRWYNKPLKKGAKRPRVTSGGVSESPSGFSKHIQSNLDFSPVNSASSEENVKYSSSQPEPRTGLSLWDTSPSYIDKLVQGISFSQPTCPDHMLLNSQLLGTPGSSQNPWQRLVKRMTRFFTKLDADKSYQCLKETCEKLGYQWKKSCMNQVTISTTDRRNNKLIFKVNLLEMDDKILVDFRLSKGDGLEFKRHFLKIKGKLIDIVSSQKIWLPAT
T11 sequence (Q14289 whole entry): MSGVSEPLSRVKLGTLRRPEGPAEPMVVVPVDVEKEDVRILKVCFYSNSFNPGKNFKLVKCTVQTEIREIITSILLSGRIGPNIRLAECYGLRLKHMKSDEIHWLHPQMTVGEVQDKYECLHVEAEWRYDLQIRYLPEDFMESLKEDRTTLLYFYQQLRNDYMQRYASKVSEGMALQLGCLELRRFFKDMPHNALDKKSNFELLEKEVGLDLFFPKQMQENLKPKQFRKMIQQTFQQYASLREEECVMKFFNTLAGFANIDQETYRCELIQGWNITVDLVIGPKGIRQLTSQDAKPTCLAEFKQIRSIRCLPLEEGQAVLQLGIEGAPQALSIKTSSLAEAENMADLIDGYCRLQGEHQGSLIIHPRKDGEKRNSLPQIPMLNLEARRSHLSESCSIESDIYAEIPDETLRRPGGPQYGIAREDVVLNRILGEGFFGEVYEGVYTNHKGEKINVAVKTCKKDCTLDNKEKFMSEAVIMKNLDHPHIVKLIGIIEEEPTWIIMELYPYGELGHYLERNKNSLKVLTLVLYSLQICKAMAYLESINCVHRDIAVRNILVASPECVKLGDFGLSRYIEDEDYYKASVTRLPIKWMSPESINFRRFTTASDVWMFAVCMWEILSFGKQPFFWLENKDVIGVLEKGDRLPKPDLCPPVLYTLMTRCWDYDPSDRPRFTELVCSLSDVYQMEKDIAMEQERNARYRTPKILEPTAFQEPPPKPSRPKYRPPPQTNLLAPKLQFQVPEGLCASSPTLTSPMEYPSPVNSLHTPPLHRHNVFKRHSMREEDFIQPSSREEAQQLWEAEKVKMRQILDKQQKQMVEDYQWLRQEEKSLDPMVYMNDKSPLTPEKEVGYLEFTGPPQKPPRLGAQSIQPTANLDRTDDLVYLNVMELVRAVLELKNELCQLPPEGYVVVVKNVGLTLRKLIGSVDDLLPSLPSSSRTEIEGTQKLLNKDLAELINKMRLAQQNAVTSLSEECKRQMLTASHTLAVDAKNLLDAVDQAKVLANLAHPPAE
Chain of EEF2K (O00418 whole entry): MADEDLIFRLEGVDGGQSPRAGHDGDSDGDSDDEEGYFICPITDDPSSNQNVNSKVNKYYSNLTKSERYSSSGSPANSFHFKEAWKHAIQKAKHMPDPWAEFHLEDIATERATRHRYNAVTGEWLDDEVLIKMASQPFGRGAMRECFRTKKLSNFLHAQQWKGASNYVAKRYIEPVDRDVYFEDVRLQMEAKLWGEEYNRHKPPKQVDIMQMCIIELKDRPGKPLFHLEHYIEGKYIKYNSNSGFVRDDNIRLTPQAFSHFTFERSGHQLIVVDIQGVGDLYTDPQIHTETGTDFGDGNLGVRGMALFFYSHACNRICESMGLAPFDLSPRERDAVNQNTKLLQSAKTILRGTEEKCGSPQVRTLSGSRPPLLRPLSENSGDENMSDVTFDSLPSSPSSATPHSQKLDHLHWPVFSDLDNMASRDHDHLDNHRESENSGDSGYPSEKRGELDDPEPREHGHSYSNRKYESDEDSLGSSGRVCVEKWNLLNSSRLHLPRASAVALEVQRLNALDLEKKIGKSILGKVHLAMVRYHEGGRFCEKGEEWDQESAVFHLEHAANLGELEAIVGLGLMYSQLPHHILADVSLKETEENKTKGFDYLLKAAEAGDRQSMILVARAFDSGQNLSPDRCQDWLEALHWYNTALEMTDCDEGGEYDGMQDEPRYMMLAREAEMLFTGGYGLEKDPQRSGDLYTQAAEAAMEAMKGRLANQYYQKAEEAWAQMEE
T3 sequence (P48729 whole entry): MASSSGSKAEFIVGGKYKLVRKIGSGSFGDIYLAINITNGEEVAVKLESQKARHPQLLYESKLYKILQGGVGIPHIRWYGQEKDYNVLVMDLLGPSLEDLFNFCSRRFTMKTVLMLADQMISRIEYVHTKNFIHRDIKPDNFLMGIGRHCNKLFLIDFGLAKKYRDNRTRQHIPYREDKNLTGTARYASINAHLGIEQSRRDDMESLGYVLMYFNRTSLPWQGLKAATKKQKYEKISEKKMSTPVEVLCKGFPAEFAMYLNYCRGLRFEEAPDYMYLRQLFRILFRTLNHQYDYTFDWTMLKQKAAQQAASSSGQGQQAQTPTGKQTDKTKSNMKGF
T7 sequence (Q9HBH9 whole entry): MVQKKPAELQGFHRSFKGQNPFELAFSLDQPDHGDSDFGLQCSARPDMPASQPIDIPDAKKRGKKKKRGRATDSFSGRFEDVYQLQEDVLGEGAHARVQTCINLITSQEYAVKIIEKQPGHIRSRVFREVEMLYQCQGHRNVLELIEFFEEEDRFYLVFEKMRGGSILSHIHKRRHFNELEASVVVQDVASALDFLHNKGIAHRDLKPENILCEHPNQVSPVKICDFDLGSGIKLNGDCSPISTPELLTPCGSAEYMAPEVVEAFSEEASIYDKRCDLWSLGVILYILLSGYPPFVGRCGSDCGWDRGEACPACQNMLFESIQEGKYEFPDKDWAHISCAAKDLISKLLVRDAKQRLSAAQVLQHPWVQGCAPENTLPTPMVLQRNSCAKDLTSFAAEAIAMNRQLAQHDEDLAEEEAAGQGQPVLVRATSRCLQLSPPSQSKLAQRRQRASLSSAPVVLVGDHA
T4 sequence (Q9HCP0 whole entry): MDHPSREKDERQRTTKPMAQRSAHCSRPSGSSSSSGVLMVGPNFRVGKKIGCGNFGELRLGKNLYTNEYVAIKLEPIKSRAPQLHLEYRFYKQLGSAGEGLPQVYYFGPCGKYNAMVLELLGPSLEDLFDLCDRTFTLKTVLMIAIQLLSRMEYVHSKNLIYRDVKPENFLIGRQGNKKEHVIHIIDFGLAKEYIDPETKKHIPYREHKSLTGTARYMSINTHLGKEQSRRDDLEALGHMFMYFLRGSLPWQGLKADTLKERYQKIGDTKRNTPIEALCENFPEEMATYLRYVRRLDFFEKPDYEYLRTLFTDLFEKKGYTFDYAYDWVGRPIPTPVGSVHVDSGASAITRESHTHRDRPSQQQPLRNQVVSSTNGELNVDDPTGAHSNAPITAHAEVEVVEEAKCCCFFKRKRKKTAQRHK

Q: For `c1cc(-c2ccc3[nH]ncc3c2)ccn1` [TG693, 5-(4-pyridinyl)-1H-indazole], which inhibition at 1 µM (ABL) is on record?
A: -1.3%

Q: What about the inhibition at 1 µM (AKT2) of the same compound?
A: -3%

Q: What about the inhibition at 1 µM (ALK(R1275Q)) of the same compound?
A: -7.6%

Q: What about the inhibition at 1 µM (AXL) of the same compound?
A: 3.5%

Q: What about the inhibition at 1 µM (CDK7/CycH/MAT1) of the same compound?
A: 6.2%

Q: What about the inhibition at 1 µM (CHK1) of the same compound?
A: 1.7%

Q: And the inhibition at 1 µM (CK1α)?
A: 11.9%

Q: And the inhibition at 1 µM (CK1γ1)?
A: 5%

Q: And the inhibition at 1 µM (CRIK)?
A: 16.9%

Q: What about the inhibition at 1 µM (CaMK2α) of the same compound?
A: -3.3%

Q: And the inhibition at 1 µM (EEF2K)?
A: -15.2%

Q: What about the inhibition at 1 µM (EGFR(L861Q)) of the same compound?
A: -5.4%

Q: What about the inhibition at 1 µM (EGFR(T790M/L858R)) of the same compound?
A: 1.3%

Q: And the inhibition at 1 µM (EPHB1)?
A: 2.5%

Q: And the inhibition at 1 µM (FLT1)?
A: 5.9%

Q: What about the inhibition at 1 µM (HIPK2) of the same compound?
A: -2%

Q: And the inhibition at 1 µM (JAK1)?
A: -0.7%

Q: What about the inhibition at 1 µM (JAK3) of the same compound?
A: 11.6%

Q: What about the inhibition at 1 µM (KIT(V560G)) of the same compound?
A: -2.6%

Q: And the inhibition at 1 µM (LCK)?
A: -8.4%

Q: What about the inhibition at 1 µM (MNK2) of the same compound?
A: 57.3%

Q: What about the inhibition at 1 µM (PAK6) of the same compound?
A: -4.3%

Q: And the inhibition at 1 µM (PDGFRα(T674I))?
A: 7.6%

Q: And the inhibition at 1 µM (PKCα)?
A: -5.4%

Q: And the inhibition at 1 µM (PKD1)?
A: -15.8%

Q: What about the inhibition at 1 µM (PYK2) of the same compound?
A: 3.3%

Q: What about the inhibition at 1 µM (ROCK2) of the same compound?
A: 46.3%

Q: What about the inhibition at 1 µM (SRC) of the same compound?
A: 3.2%

Q: And the inhibition at 1 µM (TNIK)?
A: 48.6%

Q: What about the inhibition at 1 µM (TSSK2) of the same compound?
A: -0.1%

Q: What about the inhibition at 1 µM (TXK) of the same compound?
A: -1%
